Organism: Rattus norvegicus
Test: DrugMatrix - Regimen: Daily Repeat
Format: toxicity, organism-based, Sprague-Dawley
Design: regimen Daily Repeat, gender Male, age 6-8 weeks
Conditions: in vivo, po, route oral GAVAGE, vehicle 100 % WATER; for ABSOLUTE BASOPHIL / ABSOLUTE EOSINOPHIL / ABSOLUTE LYMPHOCYTE / ABSOLUTE MONOCYTE / ABSOLUTE SEGMENTED NEUTROPHIL / BASOPHIL / EOSINOPHIL / ERYTHROCYTE COUNT / HEMATOCRIT / HEMOGLOBIN / LEUKOCYTE COUNT / LYMPHOCYTE / MEAN CORPUSCULAR HEMOGLOBIN / MEAN CORPUSCULAR HEMOGLOBIN CONCENTRATION / MEAN CORPUSCULAR VOLUME / MONOCYTE / NEUTROPHIL / NUCLEATED RED BLOOD CELLS / PLATELET COUNT: tissue Blood; for ALANINE AMINOTRANSFERASE / ALBUMIN / ALKALINE PHOSPHATASE / ASPARTATE AMINOTRANSFERASE / BLOOD UREA NITROGEN / CARBON DIOXIDE / CHLORIDE / CHOLESTEROL / CREATINE PHOSPHOKINASE / CREATININE / GLUCOSE / LACTATE DEHYDROGENASE / LIPASE / PHOSPHORUS / POTASSIUM / SODIUM / TOTAL BILIRUBIN / TOTAL PROTEIN / URIC ACID: tissue Plasma
[1] = 0 mg/kg, 72 h, dose level Control, time 3 day
[2] = 0 mg/kg, 120 h, dose level Control, time 5 day
[3] = 30 mg/kg, 72 h, dose level Low, time 3 day
[4] = 30 mg/kg, 120 h, dose level Low, time 5 day

## COc1cccc(C2(O)CCCCC2CN(C)C)c1 (configuration not stated) [TRAMADOL]
[1]
  ABSOLUTE BASOPHIL: 0 CELLS/uL
  ABSOLUTE EOSINOPHIL: 32.5 CELLS/uL
  ABSOLUTE LYMPHOCYTE: 9305.83 CELLS/uL
  ABSOLUTE MONOCYTE: 43.83 CELLS/uL
  ABSOLUTE SEGMENTED NEUTROPHIL: 817.83 CELLS/uL
  BASOPHIL: 0%
  EOSINOPHIL: 0.33%
  ERYTHROCYTE COUNT: 5.38 x10E6/uL
  HEMATOCRIT: 33.63%
  HEMOGLOBIN: 13.17 G/DL
  LEUKOCYTE COUNT: 10.2 x10E3/uL
  LYMPHOCYTE: 91.17%
  MEAN CORPUSCULAR HEMOGLOBIN: 24.5 pg
  MEAN CORPUSCULAR HEMOGLOBIN CONCENTRATION: 39.13 G/DL
  MEAN CORPUSCULAR VOLUME: 62.53 fL
  MONOCYTE: 0.5%
  NEUTROPHIL: 8%
  NUCLEATED RED BLOOD CELLS: 0.17 /100WBC
  PLATELET COUNT: 858 x10E3/uL
  ALANINE AMINOTRANSFERASE: 55.67 u/L
  ALBUMIN: 4.07 G/DL
  ALKALINE PHOSPHATASE: 337 u/L
  ASPARTATE AMINOTRANSFERASE: 84 u/L
  BLOOD UREA NITROGEN: 13.17 mg/dL
  CARBON DIOXIDE: 34.17 mmol/L
  CHLORIDE: 99.33 MEQ/L
  CHOLESTEROL: 78.83 mg/dL
  CREATINE PHOSPHOKINASE: 576.83 u/L
  CREATININE: 0.17 mg/dL
  GLUCOSE: 152.67 mg/dL
  LACTATE DEHYDROGENASE: 147.83 u/L
  LIPASE: 9.5 u/L
  PHOSPHORUS: 10.78 mg/dL
  POTASSIUM: 6.34 MEQ/L
  SODIUM: 144.12 MEQ/L
  TOTAL BILIRUBIN: 0.18 mg/dL
  TOTAL PROTEIN: 6.08 G/DL
  URIC ACID: 0.65 mg/dL
[2]
  ABSOLUTE BASOPHIL: 0 CELLS/uL
  ABSOLUTE EOSINOPHIL: 31.17 CELLS/uL
  ABSOLUTE LYMPHOCYTE: 7918.33 CELLS/uL
  ABSOLUTE MONOCYTE: 58.33 CELLS/uL
  ABSOLUTE SEGMENTED NEUTROPHIL: 725.5 CELLS/uL
  BASOPHIL: 0%
  EOSINOPHIL: 0.33%
  ERYTHROCYTE COUNT: 5.32 x10E6/uL
  HEMATOCRIT: 33.53%
  HEMOGLOBIN: 13.17 G/DL
  LEUKOCYTE COUNT: 8.73 x10E3/uL
  LYMPHOCYTE: 90.33%
  MEAN CORPUSCULAR HEMOGLOBIN: 24.82 pg
  MEAN CORPUSCULAR HEMOGLOBIN CONCENTRATION: 39.33 G/DL
  MEAN CORPUSCULAR VOLUME: 63.12 fL
  MONOCYTE: 0.67%
  NEUTROPHIL: 8.67%
  NUCLEATED RED BLOOD CELLS: 0 /100WBC
  PLATELET COUNT: 1144.83 x10E3/uL
  ALANINE AMINOTRANSFERASE: 60.5 u/L
  ALBUMIN: 3.97 G/DL
  ALKALINE PHOSPHATASE: 343.17 u/L
  ASPARTATE AMINOTRANSFERASE: 80.83 u/L
  BLOOD UREA NITROGEN: 15 mg/dL
  CARBON DIOXIDE: 31 mmol/L
  CHLORIDE: 99.75 MEQ/L
  CHOLESTEROL: 71.5 mg/dL
  CREATINE PHOSPHOKINASE: 237.17 u/L
  CREATININE: 0.17 mg/dL
  GLUCOSE: 137 mg/dL
  LACTATE DEHYDROGENASE: 146.17 u/L
  LIPASE: 11.5 u/L
  PHOSPHORUS: 10.13 mg/dL
  POTASSIUM: 6 MEQ/L
  SODIUM: 145 MEQ/L
  TOTAL BILIRUBIN: 0.13 mg/dL
  TOTAL PROTEIN: 5.82 G/DL
  URIC ACID: 0.62 mg/dL
[3]
  ABSOLUTE BASOPHIL: 0 CELLS/uL
  ABSOLUTE EOSINOPHIL: 0 CELLS/uL
  ABSOLUTE LYMPHOCYTE: 6045 CELLS/uL
  ABSOLUTE MONOCYTE: 124.33 CELLS/uL
  ABSOLUTE SEGMENTED NEUTROPHIL: 697.33 CELLS/uL
  BASOPHIL: 0%
  EOSINOPHIL: 0%
  ERYTHROCYTE COUNT: 5.35 x10E6/uL
  HEMATOCRIT: 33.3%
  HEMOGLOBIN: 13.03 G/DL
  LEUKOCYTE COUNT: 6.87 x10E3/uL
  LYMPHOCYTE: 88.33%
  MEAN CORPUSCULAR HEMOGLOBIN: 24.4 pg
  MEAN CORPUSCULAR HEMOGLOBIN CONCENTRATION: 39.13 G/DL
  MEAN CORPUSCULAR VOLUME: 62.23 fL
  MONOCYTE: 1.67%
  NEUTROPHIL: 10%
  NUCLEATED RED BLOOD CELLS: 0.67 /100WBC
  PLATELET COUNT: 1017 x10E3/uL
  ALANINE AMINOTRANSFERASE: 47.33 u/L
  ALBUMIN: 4.13 G/DL
  ALKALINE PHOSPHATASE: 434.67 u/L
  ASPARTATE AMINOTRANSFERASE: 82.67 u/L
  BLOOD UREA NITROGEN: 12.33 mg/dL
  CARBON DIOXIDE: 34.67 mmol/L
  CHLORIDE: 99.67 MEQ/L
  CHOLESTEROL: 72.33 mg/dL
  CREATINE PHOSPHOKINASE: 347.67 u/L
  CREATININE: 0.16 mg/dL
  GLUCOSE: 136.33 mg/dL
  LACTATE DEHYDROGENASE: 123.33 u/L
  LIPASE: 9.33 u/L
  PHOSPHORUS: 11 mg/dL
  POTASSIUM: 6.23 MEQ/L
  SODIUM: 144.43 MEQ/L
  TOTAL BILIRUBIN: 0.2 mg/dL
  TOTAL PROTEIN: 5.93 G/DL
  URIC ACID: 0.8 mg/dL
[4]
  ABSOLUTE BASOPHIL: 0 CELLS/uL
  ABSOLUTE EOSINOPHIL: 97.33 CELLS/uL
  ABSOLUTE LYMPHOCYTE: 8968.67 CELLS/uL
  ABSOLUTE MONOCYTE: 0 CELLS/uL
  ABSOLUTE SEGMENTED NEUTROPHIL: 967.33 CELLS/uL
  BASOPHIL: 0%
  EOSINOPHIL: 1%
  ERYTHROCYTE COUNT: 5.45 x10E6/uL
  HEMATOCRIT: 35.3%
  HEMOGLOBIN: 13.57 G/DL
  LEUKOCYTE COUNT: 10.03 x10E3/uL
  LYMPHOCYTE: 88.67%
  MEAN CORPUSCULAR HEMOGLOBIN: 24.87 pg
  MEAN CORPUSCULAR HEMOGLOBIN CONCENTRATION: 38.47 G/DL
  MEAN CORPUSCULAR VOLUME: 64.67 fL
  MONOCYTE: 0%
  NEUTROPHIL: 10.33%
  NUCLEATED RED BLOOD CELLS: 0 /100WBC
  PLATELET COUNT: 1078.67 x10E3/uL
  ALANINE AMINOTRANSFERASE: 45 u/L
  ALBUMIN: 4.03 G/DL
  ALKALINE PHOSPHATASE: 395 u/L
  ASPARTATE AMINOTRANSFERASE: 72 u/L
  BLOOD UREA NITROGEN: 13 mg/dL
  CARBON DIOXIDE: 30.67 mmol/L
  CHLORIDE: 99 MEQ/L
  CHOLESTEROL: 69.33 mg/dL
  CREATINE PHOSPHOKINASE: 188 u/L
  CREATININE: 0.17 mg/dL
  GLUCOSE: 143.67 mg/dL
  LACTATE DEHYDROGENASE: 113.33 u/L
  LIPASE: 9.33 u/L
  PHOSPHORUS: 11.2 mg/dL
  POTASSIUM: 6.21 MEQ/L
  SODIUM: 144.27 MEQ/L
  TOTAL BILIRUBIN: 0.2 mg/dL
  TOTAL PROTEIN: 5.8 G/DL
  URIC ACID: 1.2 mg/dL

— ChEMBL document CHEMBL3885881, “DrugMatrix”
